# Source: patent US10292980B2, “GAPDH cascade inhibitor compounds and methods of use and treatment of stress induced disorders including mental illness” (THE JOHNS HOPKINS UNIVERSITY, priority 2012, dated 2019)
# Experiments:
# [1] = tested on: GAPDH-Siah1 binding / nuclear translocation of GAPDH; assay: GAPDH nuclear cascade in cardiac myocytes exposed to ET1 (co-immunoprecipitation, immunostaining, fractionation); type: cell-based, rat
# Experimental: Physiological analysis, histological analysis: Echocardiography and pressure-volume loop studies were performed as described previously (Takimoto et al., Nat. Med., 11, 214-222 (2005)). 10% formalin fixed heart samples were embedded in paraffin, sectioned and stained for myocyte size (WGA staining) and fibrosis (Masson Trichrome staining) as described previously (Zhang et al., J. Am. Coll. Cardiol., 56, 2021-2030 (2010)). Isolated adult cardiac myocyte or rat neonatal cardiac myocyte was fixed with 50% methanol/50% acetone and stained with antibodies against GAPDH (Millipore), sulphonated GAPDH or HA as previously described.
# (§1) Rat neonatal cardiac myocyte culture: Rat neonatal cardiac myocytes (RNCM) were isolated from 1-2-day-old Sprague-Dawley rats, and cultured cells stimulated with 0.05 μM Endothelin-1, with or without 1 nM RR compound for 48 hours. Protein synthesis was assessed by [^3H]leucine incorporation. Adenoviral transfection of wild-type GAPDH and K227A mutant GAPDH was performed at 10-30 moi as previously described.
# (§2) Protein and RNA analysis: Total RNA was isolated from cells or left ventricular myocardium with Trizol (Molecular Research Center, Inc, Cincinnati, Ohio) and analyzed by real-time polymerase chain reaction (PCR) with TaqMan probes (Applied Biosystems, Foster City, Calif.). Results were normalized to GAPDH or 18S RNA. Cell lysates or nuclear extracts were obtained from cultured myocytes or ventricular tissue, resolved by SDS-polyacrylamide gel electrophoresis, subjected to immunoblotting and imaged by chemiluminescence as previously described.
# To test a role for the GAPDH-p300 signaling in heart hypertrophy, the Gq agonist ET1 was used as a trigger. ET1 is reported to elicit oxidative stress by activating NADPD oxidase and stress is known as a central contributor to cardiac hypertrophic response including pressure-load hypertrophy, as in the TAC model. Thus, cardiac myocytes were exposed to ET1 at 0.05 μM for about 48 hours and the effects on GAPDH signaling was examined. […]
# GAPDH = molecular target: T1, GAPDH (Rattus norvegicus, UniProt P04797); assay: GAPDH glycolytic activity in cultured cardiac cells; type: cell-based; conditions: cardiac myocytes, 1 nM, 48 hours
# T1 construct: endogenous in cells; host or cells: cultured rat neonatal cardiac cells (from Sprague-Dawley rats)
# Experimental: FIG. 4A-4D depict a deprenyl derivative compound of the present invention that blocks GAPDH-Siah1 binding. […] FIG. 4B is a graph depicting inhibition of GAPDH-Siah1 binding by the RR compound in vitro. GAPDH was pre-incubated with the RR compound, then GST-Siah1 was added and binding was assessed by GST-agarose pull down followed by western blotting. The graph represents quantification results of the blots from 6 experiments. FIG. 4C is a pair of graphs depicting in vitro MAO activity. FIG. 4D is a bar graph showing glycolytic activity in cultured rat neonatal cardiac cells exposed to 1 nM RR for 48 hours *p<0.05.
# HAT activity assay, MEF2 activity assay, MAO activity assay, GAPDH assay: p300 HAT activity was measured using commercially available kit (Biovision), using immunoprecipitation with p300 antibody (Circulation 118, 934-946 (2008)). MEF2 activity was measured using luciferase reporter assay (Panomics). MAO activity assay was measured using commercially available kit (Peninsula Laboratory). GAPDH activity was measured as previously described in (Nat. Cell Biol., 7, 665-674 (2005)). PUMA mRNA expression was determined by real time RT-PCR using SYBR Green fluorescence on a LightCycler instrument (Roche Applied Science). Expression of the gene of interest was divided by the housekeeping gene glyceraldehyde-3-phosphate dehydrogenase (GAPDH) and presented as fold induction of control. […]
# [2] = tested on: rat neonatal cardiac myocytes; assay: hypertrophy response of rat neonatal cardiac myocytes to ET1; type: cell-based; conditions: ET1-treated cardiac myocytes, 1 nM
# Experimental: as §1, §2
# Augmented p300 activity reportedly leads to cardiac hypertrophic response via activation of myocyte enhancer factor 2 (MEF2), a master transcriptional factor of mal-adaptive cardiac hypertrophy. Thus, acylation of p300, and activity of MEF2 was tested, together with several outcome measures for hypertrophy response. In cardiac myocytes treated with ET1, augmentation of p300 acylation (reflecting p300 HAT activity), an augmented activity of MEF2, and increases in cell surface area, protein synthesis assayed by ^3H-leucine uptake, and B-type natriuretic peptide (BNP) expression were observed (FIGS. 5D, E).
# TAC hearts = assay: TAC model, delayed RR treatment of pre-existing cardiac hypertrophy; type: in vivo, mouse
# Experimental: Cardiac animal models: All protocols were approved by Animal Care and Use Committee of the Johns Hopkins University. TAC was performed in C57/BL6 mice (Jackson Laboratory) as previously described in (Nat. Med., 11, 214-222 (2005), J. Clin. Invest., 119, 408-420 (2009), J. Am. Coll. Cardiol., 56, 2021-2030 (2010)). Physiological analysis, histological analysis: Echocardiography and pressure-volume loop studies were performed as described previously (Takimoto et al., Nat. Med., 11, 214-222 (2005)). 10% formalin fixed heart samples were embedded in paraffin, sectioned and stained for myocyte size (WGA staining) and fibrosis (Masson Trichrome staining) as described previously (Zhang et al., J. Am. Coll. Cardiol., 56, 2021-2030 (2010)). Isolated adult cardiac myocyte or rat neonatal cardiac myocyte was fixed with 50% methanol/50% acetone and stained with antibodies against GAPDH (Millipore), sulphonated GAPDH or HA as previously described. Protein and RNA analysis: Total RNA was isolated from cells or left ventricular myocardium with Trizol (Molecular Research Center, Inc, Cincinnati, Ohio) and analyzed by real-time polymerase chain reaction (PCR) with TaqMan probes (Applied Biosystems, Foster City, Calif.). Results were normalized to GAPDH or 18S RNA. Cell lysates or nuclear extracts were obtained from cultured myocytes or ventricular tissue, resolved by SDS-polyacrylamide gel electrophoresis, subjected to immunoblotting and imaged by chemiluminescence as previously described. In most clinical settings, medication and treatment starts only after pathological changes occur at least to some extent.
# T1 sequence (P04797 whole entry): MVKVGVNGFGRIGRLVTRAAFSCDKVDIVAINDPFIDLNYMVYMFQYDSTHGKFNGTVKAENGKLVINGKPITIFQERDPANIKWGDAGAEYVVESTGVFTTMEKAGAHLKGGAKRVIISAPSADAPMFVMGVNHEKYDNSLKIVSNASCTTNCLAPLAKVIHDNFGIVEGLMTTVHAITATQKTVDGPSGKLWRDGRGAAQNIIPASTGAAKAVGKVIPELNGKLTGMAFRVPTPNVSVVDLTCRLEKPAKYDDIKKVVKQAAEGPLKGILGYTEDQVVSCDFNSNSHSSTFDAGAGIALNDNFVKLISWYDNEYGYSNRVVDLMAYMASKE
smiles,measurement,setting,value
"C#CCN1[C@H](C)Cc2ccccc2[C@H]1C [RR, (1R,3R)-1,3-dimethyl-2-propargyl-1,2,3,4-tetrahydroisoquinoline]",GAPDH-Siah1 binding augmented by ET1,"[1]; ET1 0.05 μM about 48 hours, co-administration of RR",normalized
same,nuclear translocation of GAPDH in response to ET1,"[1]; ET1 0.05 μM, co-treatment 1 nM",blocked
same,accumulation of sulphonated GAPDH in the nucleus,"[1]; ET1 exposure, co-treatment with RR",blocked
same,GAPDH glycolytic activity,GAPDH,did not show any influence
same,PUMA expression,[2],unchanged
same,increase in B-type natriuretic peptide (BNP) expression,[2],clearly blocked
same,increase in cell surface area,[2],clearly blocked
same,increase in protein synthesis assayed by 3H-leucine uptake,[2],clearly blocked
same,expression profile of cardiac fetal gene (BNP),"TAC hearts; delayed treatment, RR-treated versus vehicle group",significant improvement
same,cardiac myocyte size (terminal postmortem assessment),"TAC hearts; treatment initiated 1 week after TAC, about two weeks",smaller
same,further LV mass increase from sustained pressure overload,"TAC hearts; treatment initiated 1 week after TAC, about two weeks of treatment, echocardiogram",significantly blocked
